{"source": "ChEMBL document CHEMBL3045481", "about": "“Insecticide-induced resurgence of the whitebacked planthopper Sogatella furcifera (Horvath) (Hemiptera: Delphacidae) on rice varieties with different levels of resistance” (Crop Prot, 2011)", "key": {"[1]": {"test_system": "Oryza sativa", "assay": "Effect on total sugar level in Sogatella furcifera-sensitive Oryza sativa (rice) plant ARC6248 leaf blade measured per gram of dry weight at 0.025% concentration (reference value: 34.05 mg/g dry wt)", "type": "ADME, organism-based", "conditions": "in vivo"}, "[2]": {"test_system": "Sogatella furcifera", "assay": "Insecticidal activity against Sogatella furcifera on insect-sensitive rice plant ARC6248 assessed as nymphal duration at 0.025% concentration (reference value: 14.48 days)", "type": "functional"}, "[3]": {"test_system": "Sogatella furcifera", "assay": "Insecticidal activity against Sogatella furcifera on insect-resistanct rice plant PR116 assessed as nymphal duration at 0.025% concentration (reference value: 11.75 days)", "type": "functional"}, "[4]": {"test_system": "Oryza sativa", "assay": "Effect on total protein level in Sogatella furcifera-resistanct Oryza sativa (rice) plant PR116 leaf blade measured per gram of dry weight at 0.025% concentration (reference value: 21.67 mg/g fresh wt)", "type": "ADME, organism-based", "conditions": "in vivo"}, "[5]": {"test_system": "Oryza sativa", "assay": "Effect on reducing sugar level in Sogatella furcifera-resistanct Oryza sativa (rice) plant PR116 leaf blade measured per gram of dry weight at 0.025% concentration (reference value: 9.35 mg/g dry wt)", "type": "ADME, organism-based", "conditions": "in vivo"}, "[6]": {"test_system": "Oryza sativa", "assay": "Effect on total sugar level in Sogatella furcifera-resistanct Oryza sativa (rice) plant PR116 leaf blade measured per gram of dry weight at 0.025% concentration (reference value: 36.16 mg/g dry wt)", "type": "ADME, organism-based", "conditions": "in vivo"}, "[7]": {"test_system": "Oryza sativa", "assay": "Effect on total phenols level in Sogatella furcifera-resistanct Oryza sativa (rice) plant PR116 leaf sheath measured per gram of dry weight at 0.025% concentration (reference value: 5.75 mg/g dry wt)", "type": "ADME, organism-based", "conditions": "in vivo"}, "[8]": {"test_system": "Oryza sativa", "assay": "Effect on total amino acids level in Sogatella furcifera-sensitive Oryza sativa (rice) plant ARC6248 leaf sheath measured per gram of dry weight at 0.025% concentration (reference value: 2.11 mg/g fresh wt)", "type": "ADME, organism-based", "conditions": "in vivo"}, "[9]": {"test_system": "Oryza sativa", "assay": "Effect on total sugar level in Sogatella furcifera-resistanct Oryza sativa (rice) plant PR116 leaf sheath measured per gram of dry weight at 0.025% concentration (reference value: 30.27 mg/g dry wt)", "type": "ADME, organism-based", "conditions": "in vivo"}, "[10]": {"test_system": "Sogatella furcifera", "assay": "Insecticidal activity against Sogatella furcifera on insect-resistanct rice plant PR116 assessed as growth index at 0.025% concentration (reference value: 6.02%)", "type": "functional"}, "[11]": {"test_system": "Oryza sativa", "assay": "Effect on total protein level in Sogatella furcifera-resistanct Oryza sativa (rice) plant PR116 leaf sheath measured per gram of dry weight at 0.025% concentration (reference value: 7.06 mg/g fresh wt)", "type": "ADME, organism-based", "conditions": "in vivo"}, "[12]": {"test_system": "Oryza sativa", "assay": "Effect on reducing sugar level in Sogatella furcifera-sensitive Oryza sativa (rice) plant ARC6248 leaf blade measured per gram of dry weight at 0.025% concentration (reference value: 8.37 mg/g dry wt)", "type": "ADME, organism-based", "conditions": "in vivo"}, "[13]": {"test_system": "Oryza sativa", "assay": "Effect on total phenols level in Sogatella furcifera-resistanct Oryza sativa (rice) plant PR116 leaf blade measured per gram of dry weight at 0.025% concentration (reference value: 8.08 mg/g dry wt)", "type": "ADME, organism-based", "conditions": "in vivo"}, "[14]": {"test_system": "Sogatella furcifera", "assay": "Insecticidal activity against Sogatella furcifera on insect-resistanct rice plant PR116 assessed as resurgence ratio at 0.025% concentration", "type": "functional"}, "[15]": {"test_system": "Oryza sativa", "assay": "Effect on reducing sugar level in Sogatella furcifera-sensitive Oryza sativa (rice) plant ARC6248 leaf sheath measured per gram of dry weight at 0.025% concentration (reference value: 6.41 mg/g dry wt)", "type": "ADME, organism-based", "conditions": "in vivo"}, "[16]": {"test_system": "Oryza sativa", "assay": "Effect on total amino acids level in Sogatella furcifera-sensitive Oryza sativa (rice) plant ARC6248 leaf blade measured per gram of dry weight at 0.025% concentration (reference value: 3.54 mg/g […])", "type": "ADME, organism-based", "conditions": "in vivo"}, "[17]": {"test_system": "Oryza sativa", "assay": "Effect on total phenols level in Sogatella furcifera-sensitive Oryza sativa (rice) plant ARC6248 leaf blade measured per gram of dry weight at 0.025% concentration (reference value: 17.08 mg/g dry wt)", "type": "ADME, organism-based", "conditions": "in vivo"}, "[18]": {"test_system": "Oryza sativa", "assay": "Effect on total sugar level in Sogatella furcifera-sensitive Oryza sativa (rice) plant ARC6248 leaf sheath measured per gram of dry weight at 0.025% concentration (reference value: 25.98 mg/g dry wt)", "type": "ADME, organism-based", "conditions": "in vivo"}, "[19]": {"test_system": "Oryza sativa", "assay": "Effect on total protein level in Sogatella furcifera-sensitive Oryza sativa (rice) plant ARC6248 leaf sheath measured per gram of dry weight at 0.025% concentration (reference value: 6.11 mg/g […])", "type": "ADME, organism-based", "conditions": "in vivo"}, "[20]": {"test_system": "Oryza sativa", "assay": "Effect on total phenols level in Sogatella furcifera-sensitive Oryza sativa (rice) plant ARC6248 leaf sheath measured per gram of dry weight at 0.025% concentration (reference value: 12.75 mg/g dry wt)", "type": "ADME, organism-based", "conditions": "in vivo"}, "[21]": {"test_system": "Sogatella furcifera", "assay": "Insecticidal activity against Sogatella furcifera on insect-sensitive rice plant ARC6248 assessed as resurgence ratio at 0.025% concentration", "type": "functional"}, "[22]": {"test_system": "Oryza sativa", "assay": "Effect on total amino acids level in Sogatella furcifera-resistanct Oryza sativa (rice) plant PR116 leaf sheath measured per gram of dry weight at 0.025% concentration (reference value: 2.58 mg/g […])", "type": "ADME, organism-based", "conditions": "in vivo"}, "[23]": {"test_system": "Oryza sativa", "assay": "Effect on total amino acids level in Sogatella furcifera-resistanct Oryza sativa (rice) plant PR116 leaf blade measured per gram of dry weight at 0.025% concentration (reference value: 3.91 mg/g […])", "type": "ADME, organism-based", "conditions": "in vivo"}, "[24]": {"test_system": "Oryza sativa", "assay": "Effect on total protein level in Sogatella furcifera-sensitive Oryza sativa (rice) plant ARC6248 leaf blade measured per gram of dry weight at 0.025% concentration (reference value: 17.67 mg/g […])", "type": "ADME, organism-based", "conditions": "in vivo"}, "[25]": {"test_system": "Sogatella furcifera", "assay": "Insecticidal activity against Sogatella furcifera on insect-sensitive rice plant ARC6248 assessed as growth index at 0.025% concentration (reference value: 2.38%)", "type": "functional"}, "[26]": {"test_system": "Oryza sativa", "assay": "Effect on reducing sugar level in Sogatella furcifera-resistanct Oryza sativa (rice) plant PR116 leaf sheath measured per gram of dry weight at 0.025% concentration (reference value: 7.50 mg/g dry wt)", "type": "ADME, organism-based", "conditions": "in vivo"}, "[27]": {"test_system": "Sogatella furcifera", "assay": "Insecticidal activity against Sogatella furcifera on insect-resistanct rice plant PR116 assessed as nymphal survival at 0.025% concentration (reference value: 70.28%)", "type": "functional"}, "[28]": {"test_system": "Sogatella furcifera", "assay": "Insecticidal activity against Sogatella furcifera on insect-sensitive rice plant ARC6248 assessed as nymphal survival at 0.025% concentration (reference value: 34.17%)", "type": "functional"}}}
{"smiles": "CC1(C)[C@H](C(=O)O[C@H](C#N)c2cccc(Oc3ccccc3)c2)[C@@H]1C=C(Br)Br", "note": "[DELTAMETHRIN]", "values": [{"measurement": "Activity", "setting": "[1]", "result": 38.84, "unit": "mg"}, {"measurement": "Time", "setting": "[2]", "result": 14.32, "unit": "days"}, {"measurement": "Time", "setting": "[3]", "result": 11.63, "unit": "days"}, {"measurement": "Activity", "setting": "[4]", "result": 23.89, "unit": "mg"}, {"measurement": "Activity", "setting": "[5]", "result": 14.35, "unit": "mg"}, {"measurement": "Activity", "setting": "[6]", "result": 44.2, "unit": "mg"}, {"measurement": "Activity", "setting": "[7]", "result": 5.42, "unit": "mg"}, {"measurement": "Activity", "setting": "[8]", "result": 2.95, "unit": "mg"}, {"measurement": "Activity", "setting": "[9]", "result": 35.62, "unit": "mg"}, {"measurement": "growth inhibition (GI)", "setting": "[10]", "result": 6.77, "unit": "%"}, {"measurement": "Activity", "setting": "[11]", "result": 8, "unit": "mg"}, {"measurement": "Activity", "setting": "[12]", "result": 12.28, "unit": "mg"}, {"measurement": "Activity", "setting": "[13]", "result": 6.92, "unit": "mg"}, {"measurement": "Ratio", "setting": "[14]", "result": 1.75}, {"measurement": "Activity", "setting": "[15]", "result": 10.76, "unit": "mg"}, {"measurement": "Activity", "setting": "[16]", "result": 4.21, "unit": "mg"}, {"measurement": "Activity", "setting": "[17]", "result": 17.08, "unit": "mg"}, {"measurement": "Activity", "setting": "[18]", "result": 35.36, "unit": "mg"}, {"measurement": "Activity", "setting": "[19]", "result": 7.78, "unit": "mg"}, {"measurement": "Activity", "setting": "[20]", "result": 12, "unit": "mg"}, {"measurement": "Ratio", "setting": "[21]", "result": 1.28}, {"measurement": "Activity", "setting": "[22]", "result": 3.73, "unit": "mg"}, {"measurement": "Activity", "setting": "[23]", "result": 4.62, "unit": "mg"}, {"measurement": "Activity", "setting": "[24]", "result": 19.83, "unit": "mg"}, {"measurement": "growth inhibition (GI)", "setting": "[25]", "result": 2.74, "unit": "%"}, {"measurement": "Activity", "setting": "[26]", "result": 13.8, "unit": "mg"}, {"measurement": "Survival", "setting": "[27]", "result": 78.05, "unit": "%"}, {"measurement": "Survival", "setting": "[28]", "result": 38.89, "unit": "%"}]}
